Experimental findings from patent US10413545B2, “Imidazolin-5-one derivative useful as FASN inhibitors for the treatment of cancer” (Janssen Pharmaceutica NV, priority 2013, dated 2019) are described below.

The target of test [1] is FASN Keto-reductase Domain (hFASN enzyme, full length) (Homo sapiens (Human), UniProt P49327). Briefly: Fatty Acid Synthase Keto-Reductase Domain (FASN KR) Inhibition. The class given is biochemical. To be noted: NADPH oxidation at 340 nm, ethyl acetoacetate substrate, mean if tested more than once; for IC50: read-out: FASN Keto-reductase Domain pIC50 (converted). As to the method: After 20 minutes incubation at room temperature the plate was measured again (T2).
The decrease in absorbance was calculated as (Absorbance before incubation T1)−(Absorbance following incubation T2).
(§1) Raw data generated by the instrument were normalized to % Controlmin values, which were calculated as: % Controlmin=100*(x−mLC)/(mHC−mLC)
where mLC and mHC were the means of the low control wells and high control wells on the plate, after manual exclusion of outliers. A plot of Controlmin versus test compound concentration was fitted to a 4-parameter logistic curve using a non-linear least squares regression method.

Test [2] relates to LNCaP_Vancouver prostate cells. Briefly: In Vitro LNCaP Vancouver Prostate Cell Proliferation Assay in Lipid Reduced Medium. The class given is cell-based. To be noted: 10% lipid reduced serum, 96 h, ATP-glow luminescence; for IC50: Prostate cell, read-out: pIC50 LNCaP_Vancouver prostate cell (converted).
The subject of another test is A2780 ovarian cells. Kind of test: A2780 Ovarian Cell Proliferation Assay in Lipid Reduced Medium, with and without Palmitate (MTT). It counts as cell-based. The following applies: 10% lipid-reduced serum, 96 h; for IC50: Homo sapiens.
Test [3] relates to PC-3M-Luc-C6 prostate cells. Briefly: In Vitro PC-3M-Luc-C6 Prostate Cell Proliferation Assay in Lipid Reduced Medium. It counts as cell-based. The following applies: 10% lipid reduced serum, 96 h, ATP-glow luminescence; for IC50: Prostate cell, read-out: pIC50 PC-3M-Luc-C6 prostate cell (converted).
The target in test [4] is Human FASN (hFASN enzyme, full length) (Homo sapiens (Human), UniProt P49327). Briefly: Fatty Acid Synthase (FASN) Inhibition Scintillation Proximity Assay. It counts as biochemical. The following applies: hFASN SPA, 3H-acetyl-CoA/malonyl-CoA; mean if tested more than once; ~ = standard error of pIC50 >0.5. As to the method:
In this assay, inhibition of FASN activity is measured using ^3H-acetyl-CoA and malonyl-CoA as substrates. ^3H-Acetyl CoA is converted to ^3H-palmitate through a series of reactions by the FASN protein, which contains 7 functional domains and carries out 7 enzymatic reactions to ultimately produce ^3H-palmitate. The assay principle is based upon the fact that ^3H-acetyl-CoA is hydrophilic and the end product, ^3H-palmitate is hydrophobic.
0.9 μL test compound (at concentrations of 30 μM, 10 μM, 3 μM, 1 μM, 0.30 μM, 0.10 μM, 0.03 μM and 0.01 μM)/DMSO and 10 μL hFASN enzyme (full length, 300 ng, purified in house) or 10 μL assay buffer was added to the wells. […] The reaction was stopped by adding 20 μL Streptavidin coupled imaging beads (25 mg/ml). After incubation for 30 minutes at room temperature in the dark, the 384 well plate was centrifuged at 1500 rpm for 3 minutes and was measured after at least 24 hrs by the LEADseeker™, measuring emission using a 610±20 nm pass filter.
as §1
where mLC and mHC were the means of the low control wells and high control wells on the plate, after manual exclusion of outliers. […]
(Scintillation proximity formats need no separation of bound from free tracer.)

[5] abbreviates: no palmitate, read-out: pIC50 Without Palmitate (converted).
Setting [6] is: 25 μM palmitate added (control), read-out: pIC50 With Palmitate (converted).

Read-outs that look alike come from different tables or passages of the source.

Sequence of FASN Keto-reductase Domain (hFASN enzyme, full length) (P49327 whole entry, the tested form may be a part): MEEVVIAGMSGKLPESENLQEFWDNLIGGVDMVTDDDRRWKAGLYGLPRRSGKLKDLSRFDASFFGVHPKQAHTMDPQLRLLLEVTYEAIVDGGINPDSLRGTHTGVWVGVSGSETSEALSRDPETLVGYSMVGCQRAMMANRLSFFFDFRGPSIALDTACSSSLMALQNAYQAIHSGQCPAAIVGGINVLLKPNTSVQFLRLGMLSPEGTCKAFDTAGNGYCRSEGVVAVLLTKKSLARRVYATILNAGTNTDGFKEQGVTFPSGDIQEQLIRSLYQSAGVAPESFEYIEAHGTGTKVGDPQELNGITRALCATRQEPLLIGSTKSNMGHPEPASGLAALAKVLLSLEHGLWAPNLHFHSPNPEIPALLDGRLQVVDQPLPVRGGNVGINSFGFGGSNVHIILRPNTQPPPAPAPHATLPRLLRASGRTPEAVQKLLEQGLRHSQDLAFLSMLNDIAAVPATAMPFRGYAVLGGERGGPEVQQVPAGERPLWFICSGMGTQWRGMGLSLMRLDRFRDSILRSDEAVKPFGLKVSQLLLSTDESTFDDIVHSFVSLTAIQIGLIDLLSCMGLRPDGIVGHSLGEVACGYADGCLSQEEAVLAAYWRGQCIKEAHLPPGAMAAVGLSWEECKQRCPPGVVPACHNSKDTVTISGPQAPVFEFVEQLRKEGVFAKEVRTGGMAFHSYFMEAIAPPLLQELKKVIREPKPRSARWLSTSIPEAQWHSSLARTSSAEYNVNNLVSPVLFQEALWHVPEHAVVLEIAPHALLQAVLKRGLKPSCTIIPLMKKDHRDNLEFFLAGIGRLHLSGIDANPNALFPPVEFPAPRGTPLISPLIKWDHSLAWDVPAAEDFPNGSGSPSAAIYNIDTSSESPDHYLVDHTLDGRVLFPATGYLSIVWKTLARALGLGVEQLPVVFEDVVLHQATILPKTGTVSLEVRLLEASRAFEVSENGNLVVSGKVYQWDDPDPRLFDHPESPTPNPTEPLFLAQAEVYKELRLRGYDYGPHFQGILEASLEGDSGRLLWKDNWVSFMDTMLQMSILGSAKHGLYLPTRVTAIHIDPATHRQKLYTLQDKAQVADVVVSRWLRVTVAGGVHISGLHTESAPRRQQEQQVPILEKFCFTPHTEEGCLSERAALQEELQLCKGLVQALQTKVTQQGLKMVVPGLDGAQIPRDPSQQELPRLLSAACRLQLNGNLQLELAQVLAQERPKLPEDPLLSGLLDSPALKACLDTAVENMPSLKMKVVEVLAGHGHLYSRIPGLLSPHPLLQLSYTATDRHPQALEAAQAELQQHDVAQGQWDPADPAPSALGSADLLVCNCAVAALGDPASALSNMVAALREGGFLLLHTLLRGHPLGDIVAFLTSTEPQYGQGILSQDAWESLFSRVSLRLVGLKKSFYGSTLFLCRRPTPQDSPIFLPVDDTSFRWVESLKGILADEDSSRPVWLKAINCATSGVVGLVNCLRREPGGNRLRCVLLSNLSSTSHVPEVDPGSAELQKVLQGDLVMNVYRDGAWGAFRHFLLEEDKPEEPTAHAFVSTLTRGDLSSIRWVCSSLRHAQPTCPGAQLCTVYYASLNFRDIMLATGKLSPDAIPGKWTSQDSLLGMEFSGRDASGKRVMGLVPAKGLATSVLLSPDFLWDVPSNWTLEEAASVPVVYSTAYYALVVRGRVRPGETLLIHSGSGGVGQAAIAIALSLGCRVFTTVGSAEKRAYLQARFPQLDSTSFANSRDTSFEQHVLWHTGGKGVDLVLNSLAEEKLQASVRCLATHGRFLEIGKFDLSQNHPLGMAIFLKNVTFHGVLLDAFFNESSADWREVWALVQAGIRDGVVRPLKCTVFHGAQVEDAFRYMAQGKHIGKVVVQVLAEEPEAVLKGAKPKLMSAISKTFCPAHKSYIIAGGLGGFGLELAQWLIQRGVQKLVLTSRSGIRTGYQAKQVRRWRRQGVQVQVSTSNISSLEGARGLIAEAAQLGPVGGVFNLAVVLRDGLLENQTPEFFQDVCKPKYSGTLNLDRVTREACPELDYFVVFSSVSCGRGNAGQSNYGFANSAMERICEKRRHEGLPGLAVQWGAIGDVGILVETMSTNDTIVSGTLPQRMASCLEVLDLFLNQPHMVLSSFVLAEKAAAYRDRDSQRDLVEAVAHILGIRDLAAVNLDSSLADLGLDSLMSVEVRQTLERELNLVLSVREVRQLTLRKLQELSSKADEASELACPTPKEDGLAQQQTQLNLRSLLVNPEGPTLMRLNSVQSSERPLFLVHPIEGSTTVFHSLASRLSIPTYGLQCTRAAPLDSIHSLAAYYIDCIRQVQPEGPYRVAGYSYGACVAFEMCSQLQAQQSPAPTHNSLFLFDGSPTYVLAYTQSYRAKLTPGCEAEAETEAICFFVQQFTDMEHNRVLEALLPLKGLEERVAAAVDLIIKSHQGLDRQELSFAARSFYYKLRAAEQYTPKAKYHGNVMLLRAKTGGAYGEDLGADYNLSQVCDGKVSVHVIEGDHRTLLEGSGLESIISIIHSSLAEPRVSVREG
Sequence of Human FASN (hFASN enzyme, full length) (P49327 whole entry, the tested form may be a part): as above

As to `CC1(C)N=C(c2ccc(-c3c[nH]c4ccccc34)cc2F)N(C[C@@H]2CCN(C(=O)C3CC3)C2)C1=O` [Compound 63, (R)-1-((1-(cyclopropanecarbonyl)pyrrolidin-3-yl)methyl)-2-(2-fluoro-4-(1H-indol-3-yl)phenyl)-4,4-dimethyl-1H-imidazol-5(4H)-one], the IC50 in test [1] is 0.186 µM; in test [2], 0.525 µM.
Turning to `CC1(C)N=C(c2ccc(-c3ccc4cc(F)ccc4c3)cc2F)N(C[C@@H]2CCN(C(=O)C3CC3)C2)C1=O` [Compound 66], the IC50 is 0.0525 µM in test [1], about 0.427 µM in the test with A2780 ovarian cells (setting [5]), 0.692 µM in test [2] and 0.589 µM in test [3].
For the compound `CC1(C)N=C(c2ccc(-c3ccc4cnccc4c3)cc2F)N(C[C@@H]2CCN(C(=O)C3CC3)C2)C1=O` [Compound 68, (R)-1-((1-(cyclopropanecarbonyl)pyrrolidin-3-yl)methyl)-2-(2-fluoro-4-(isoquinolin-6-yl)phenyl)-4,4-dimethyl-1H-imidazol-5(4H)-one], the IC50 was 0.0479 µM in test [1], 0.0174 µM in the test on A2780 ovarian cells (setting [5]) and 0.204 µM in test [2].
Consider “1-((1-(cyclopropanecarbonyl)azetidin-3-yl)methyl)-2-(2-fluoro-4-(1-methyl-1H-indazol-5-yl)phenyl)-4,4-dimethyl-1H-1-imidazol-5(4H)-one [Compound 69]”, for which, in test [4], the “Human FASN pIC50” value is 6.96. In addition, the “FASN Keto-reductase Domain pIC50” value in test [1] is on record as 6.67. Moreover, in the test on A2780 ovarian cells (25 μM palmitate added (control)), the “pIC50 With Palmitate” value is on record as under 5. In addition, in the test with A2780 ovarian cells (no palmitate), the “pIC50 Without Palmitate” value stood at 7.19. Besides, the “pIC50 LNCaP_Vancouver prostate cell” value in test [2] worked out at 6.87. Also, the “pIC50 PC-3M-Luc-C6 prostate cell” value in test [3] amounted to 7.04.
For the compound `CC1(C)N=C(c2ccc(-c3n[nH]c4ccccc34)cc2F)N(C[C@@H]2CCN(C(=O)C3CC3)C2)C1=O` [Compound 57, (R)-1-((1-(cyclopropanecarbonyl)pyrrolidin-3-yl)methyl)-2-(2-fluoro-4-(1H-indazol-3-yl)phenyl)-4,4-dimethyl-1H-imidazol-5(4H)-one], the IC50 in test [1] was 2.75 µM; in test [2], 1.78 µM; in test [3], 0.646 µM.
As to `CC1(C)N=C(c2ccc(-c3ccc4cncnc4c3)cc2)N(C[C@@H]2CCN(C(=O)C3CC3)C2)C1=O` [Compound 42, (R)-1-((1-(cyclopropanecarbonyl)pyrrolidin-3-yl)methyl)-4,4-dimethyl-2-(4-(quinazolin-7-yl)phenyl)-1H-imidazol-5(4H)-one], the IC50 is over 10 µM in the test on A2780 ovarian cells (setting [6]), about 0.191 µM in the test on A2780 ovarian cells (setting [5]), 1 µM in test [2] and 0.417 µM in test [3].
For the compound `CC1(C)N=C(c2ccc(-c3nc4ccccc4s3)cc2F)N(CC2CN(C(=O)C3CC3)C2)C1=O` [Compound 34, 2-(4-(benzo[d]thiazol-2-yl)-2-fluorophenyl)-1-((1-(cyclopropanecarbonyl)azetidin-3-yl)methyl)-4,4-dimethyl-1H-imidazol-5(4H)-one], the IC50 with A2780 ovarian cells (setting [6]) was over 10 µM; with A2780 ovarian cells (setting [5]), 1 µM; in test [2], 2.63 µM; in test [3] it was 0.832 µM.
Regarding `CC1(C)N=C(c2ccc(-c3ccc(-c4ccncc4)cc3)cc2)N(CC2CN(C(=O)C3CC3)C2)C1=O` [Compound 26, 1-((1-(cyclopropanecarbonyl)azetidin-3-yl)methyl)-4,4-dimethyl-2-(4′-(pyridin-4-yl)-[1,1′-biphenyl]-4-yl)-1H-imidazol-5(4H)-one], the IC50 with A2780 ovarian cells (setting [6]) was over 10 µM; in the test on A2780 ovarian cells (setting [5]), 1.95 µM; in test [2], 3.39 µM; in test [3], 1 µM.
With `CC1(C)N=C(c2ccc(-c3nc4ccccc4[nH]3)cc2)N(C[C@@H]2CCN(C(=O)C3CC3)C2)C1=O` [Compound 71, (R)-2-(4-(1H-benzo[d]imidazol-2-yl)phenyl)-1-((1-(cyclopropanecarbonyl)pyrrolidin-3-yl)methyl)-4,4-dimethyl-1H-imidazol-5(4H)-one], the “Human FASN pIC50” value in test [4] is 5.23. The IC50 is over 10 µM in the test with A2780 ovarian cells (setting [6]) and about 9.33 µM with A2780 ovarian cells (setting [5]).
Take `Cc1cc(-c2ccc3c(cnn3C)c2)ccc1C1=NC(C)(C)C(=O)N1CC1CN(C(=O)C2(C)CC2)C1` [Compound 77, 4,4-dimethyl-2-(2-methyl-4-(1-methyl-1H-1-indazol-5-yl)phenyl)-1-((1-(1-methylcyclopropanecarbonyl)azetidin-3-yl)methyl)-1H-imidazol-5(4H)-one]: the IC50 was over 10 µM with A2780 ovarian cells (setting [6]), 0.316 µM in the test on A2780 ovarian cells (setting [5]), 1.17 µM in test [2] and 0.112 µM in test [3].
Turning to `Cn1cc(-c2ccc(-c3ccc(C4=NC(C)(C)C(=O)N4CC4CN(C(=O)C5CC5)C4)cc3)cc2)cn1` [Compound 17, 1-((1-(cyclopropanecarbonyl)azetidin-3-yl)methyl)-4,4-dimethyl-2-(4′-(1-methyl-1H-pyrazol-4-yl)-[1,1′-biphenyl]-4-yl)-1H-imidazol-5(4H)-one], the IC50 in the test on A2780 ovarian cells (setting [6]) is over 10 µM; in the test on A2780 ovarian cells (setting [5]), 2.51 µM; in test [2], 8.91 µM; in test [3], 1.82 µM.
As to `CC1(C)N=C(c2ccc(-c3ccc4cccnc4c3)cc2F)N(CC2CN(C(=O)C3CC3)C2)C1=O` [Compound 39, 1-((1-(cyclopropanecarbonyl)azetidin-3-yl)methyl)-2-(2-fluoro-4-(quinolin-7-yl)phenyl)-4,4-dimethyl-1H-imidazol-5(4H)-one], the IC50 is over 10 µM in the test on A2780 ovarian cells (setting [6]), about 0.0912 µM in the test on A2780 ovarian cells (setting [5]), 0.269 µM in test [2] and 0.0955 µM in test [3].
In the same order, the values of `CC1(C(=O)N2CC(CN3C(=O)C(C)(C)N=C3c3ccc(-c4ccc5cc(F)ccc5c4)cc3F)C2)CC1` [Compound 72, 2-(2-fluoro-4-(6-fluoronaphthalen-2-yl)phenyl)-4,4-dimethyl-1-((1-(1-methylcyclopropanecarbonyl)azetidin-3-yl)methyl)-1H-imidazol-5(4H)-one] are 7.76 µM, about 0.0257 µM, 0.295 µM and 0.0269 µM.
On the same counts, the results for `CC1(C)N=C(c2ccc(-c3ccc4cnccc4c3)cc2)N(C[C@@H]2CCN(C(=O)C3CC3)C2)C1=O` [Compound 28] are over 10 µM, 0.0589 µM, 1.58 µM and 0.0631 µM.
In the case of `CC1(C)N=C(c2ccc(-c3ccc4cccnc4c3)cc2)N(CC2CN(C(=O)C3CC3)C2)C1=O` [Compound 24, 1-((1-(cyclopropanecarbonyl)azetidin-3-yl)methyl)-4,4-dimethyl-2-(4-(quinolin-7-yl)phenyl)-1H-imidazol-5(4H)-one], the IC50 was over 10 µM in the test with A2780 ovarian cells (setting [6]), about 0.363 µM in the test with A2780 ovarian cells (setting [5]), 1.45 µM in test [2] and 0.447 µM in test [3].
As for `Cn1cc(-c2ccc(-c3ccc(C4=NC(C)(C)C(=O)N4CC4CN(C(=O)C5(C)CC5)C4)c(F)c3)cc2)cn1` [Compound 70], the IC50 was over 10 µM in the test on A2780 ovarian cells (setting [6]), 0.0245 µM in the test with A2780 ovarian cells (setting [5]), 0.135 µM in test [2] and 0.011 µM in test [3].
